Among the data in US20230227484A1, “PYRIMIDINE COMPOUND AS AXL INHIBITOR” (NANJING CHIA TAI TIANQING PHARMACEUTICAL CO., LTD., priority 2020, published 2023) are IC50 values, retold here.

The test deals with T1, AXL kinase (Homo sapiens, UniProt P30530).
T1 construct: purchased Carna 08-107
T1 sequence (P30530 473-894 limits assumed): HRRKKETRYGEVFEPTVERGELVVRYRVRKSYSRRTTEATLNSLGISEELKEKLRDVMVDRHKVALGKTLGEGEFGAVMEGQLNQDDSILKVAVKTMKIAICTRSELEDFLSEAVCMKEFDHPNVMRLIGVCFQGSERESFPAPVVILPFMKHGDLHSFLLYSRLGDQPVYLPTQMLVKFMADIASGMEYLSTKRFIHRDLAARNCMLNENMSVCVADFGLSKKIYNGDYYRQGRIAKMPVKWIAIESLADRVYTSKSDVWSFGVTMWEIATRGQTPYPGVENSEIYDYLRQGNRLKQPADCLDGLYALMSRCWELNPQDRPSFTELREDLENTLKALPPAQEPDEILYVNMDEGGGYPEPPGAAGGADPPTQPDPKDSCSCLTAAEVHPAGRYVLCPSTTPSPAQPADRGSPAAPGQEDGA
Put plainly: Inhibitory activity of compound against AXL kinase (HTRF KinEASE). The class given is biochemical. The conditions noted are these: AXL enzyme (Carna, 08-107), ATP 15 μM; "<" means below detection limit of the test. The protocol: a) AXL enzyme (Carna, 08-107) configuration and addition: a 1×enzyme buffer (200 μL of Enzymatic buffer kinase 5×, 10 μL of 500 mM MgCl2, 10 μL of 100 mM DTT and 6.26 μL of 2500 nM SEB are added with […] of H2O, and prepared into 1 ml of 1× enzyme buffer) is used. AXL enzyme is diluted from 33.33 ng/uL to 0.027 ng/μL (1.67×, final conc.=0.016 ng/uL), a BioTek (MultiFlo FX) automatic liquid dispenser is used, and 6 μL of enzyme solution having a 1.67-fold final concentration is added respectively to compound wells and positive control wells; and 6 μL of 1×Enzymatic buffer is added to negative control wells.
b) Compound preparation and addition: the compounds and positive drugs prepared in the examples are diluted from 10 mM to 100 μM by DMSO, and titrated with a compound titrator (Tecan, D300e). The titrated solution is automatically sprayed by the titrator to each well to reach a required concentration, wherein the first concentration is 1 μM, and after ½ log dilution, a total of 8 concentrations are obtained. The resulting mixture is centrifuged at 2500 rpm for 30 s and incubated at room temperature for 15 min.
c) Preparation and addition of ATP and substrate: ATP (Sigma, A7699) is diluted with 1× enzyme buffer from 10 mM to 75 μM (5×), and the final concentration is 15 μM; the substrate TK Substrate 3-biotin (Cisbio, 61TK0BLC) is diluted with 1× enzyme buffer from 500 μM to 5 μM (5×), andthe final concentration is […]; ATP and the substrate are mixed in equal volume to obtain a mixed solution; the mixed solution is added to each well at 4 μL by using a BioTek automatic dispenser; centrifuged at 2500 rpm for 30 s, and reacted at 25° C. for 45 min.
d) Pirparation and addition of detection reagent: Streptavidin-XL665 (Cisbio, 610SAXLG) is diluted with HTRF KinEASE detection buffer (cisbio) from 16.67 μM to 250 nM (4×), and the final concentration is 62.5 nM; TK Antibody-Cryptate (Cisbio) is diluted with HTRF KinEASE detection buffer (cisbio) from 100× to 5×, and the final concentration is 1×; XL665 and Antibody are mixed in equal volume; the mixed solution is added to each well at 10 μL by using the BioTek automatic dispenser, centrifuged at 2500 rpm for 30 s, and reacted at 25° C. for 1 h. After the reaction is completed, the resulting product is detected by a multi-function plate reader HTR1p
GraphPad Prism 5 software log (inhibitor) vs. response-Variable slope is used to fit a dose-response curve to obtain the IC50 value of the compound to the inhibition of AXL kinase.
The calculation formula of the inhibition rate is as follows: […]

In the case of `Cc1ccc(P(C)(C)=O)c(Nc2nc(Nc3ccc4c(c3)CC[C@@H](N3CCCC3)CC4)ncc2Cl)c1` [Example 130, (S)-(2-((5-chloro-2-((7-(pyrrolidin-1-yl)-6,7,8,9-tetrahydro-5H-benzo[7]annulen-2-yl)amino)pyrimidin-4-yl)amino)-4-methylphenyl)dimethyl phosphine oxide], the IC50 is 12.3 nM.

`CN(C)C(=O)c1occc1Nc1nc(Nc2ccc3c(c2)CC[C@@H](N2CCCC2)CC3)ncc1Cl` [Example 7, (S)-3-((5-chloro-2-((7-(pyrrolidin-1-yl)-6,7,8,9-tetrahydro-5H-benzo[7]annulen-2-yl)amino)pyrimidin-4-yl)amino)-N,N-dimethylfuran-2-carboxamide] showed an IC50 of 7.74 nM. Then `COCc1ccc(Nc2nc(Nc3ccc4c(c3)CCC(N3CC5CC3C5)CC4)ncc2Cl)c(P(C)(C)=O)c1` (single isomer, unassigned) [Example 116 Isomer 116-2, (2-((2-((7-(2-azabicyclo[2.1.1]hexan-2-yl)-6,7,8,9-tetrahydro-5H-benzo[7]annulen-2-yl)amino)-5-chloropyrimidin-4-yl)amino)-5-(methoxymethyl)phenyl)dimethyl phosphine oxide], with 96.8 nM; and `COCCNC(=O)c1ccccc1Nc1nc(Nc2ccc3c(c2)CC[C@@H](N2CCCC2)CC3)ncc1Cl` [Example 38, (S)-2-((5-chloro-2-((7-(pyrrolidin-1-yl)-6,7,8,9-tetrahydro-5H-benzo[7]annulen-2-yl)amino)pyrimidin-4-yl)amino)-N-(2-methoxyethyl)benzamide], with 6.24 nM; and `CNC(=O)c1cc(P(C)(C)=O)ccc1Nc1nc(Nc2ccc3c(c2)CC[C@@H](N2CCCC2)CC3)ncc1Cl` [Example 79, (S)-2-((5-chloro-2-((7-(pyrrolidin-1-yl)-6,7,8,9-tetrahydro-5H-benzo[7]annulen-2-yl)amino)pyrimidin-4-yl)amino)-5-(dimethylphosphoryl)-N-methylbenzamide], with 1.05 nM. The figure for `CS(=N)(=O)c1ccccc1Nc1nc(Nc2ccc3c(c2)CC[C@@H](N2CCCC2)CC3)ncc1Cl` (stereo partly drawn) [Example 50, (2-((5-chloro-2-(((S)-7-(pyrrolidin-1-yl)-6,7,8,9-tetrahydro-5H-benzo[7]annulen-2-yl)amino)pyrimidin-4-yl)amino)phenyl)(imino)(methyl)-λ^6-sulfanone] is 2.16 nM. Then `CN(C)S(=O)(=O)c1cccc(Nc2nc(Nc3ccc4c(c3)CC[C@@H](N3CCCC3)CC4)ncc2Cl)c1` [Example 2, (S)-3-((5-chloro-2-((7-(pyrrolidin-1-yl)-6,7,8,9-tetrahydro-5H-benzo[7]annulen-2-yl)amino)pyrimidin-4-yl)amino)-N,N-dimethyl benzenesulfonamide], with 13.4 nM; and `COc1cc(Nc2nc(Nc3ccc4c(c3)CC[C@@H](N3CCCC3)CC4)ncc2Cl)c(P(C)(C)=O)cc1F` [Example 131, (S)-(2-((5-chloro-2-((7-(pyrrolidin-1-yl)-6,7,8,9-tetrahydro-5H-benzo[7]annulen-2-yl)amino)pyrimidin-4-yl)amino)-5-fluoro-4-methoxylphenyl)dimethyl phosphine oxide], with 207 nM.

Molecule `CP(C)(=O)c1cc(N2CC3(COC3)C2)ccc1Nc1nc(Nc2ccc3c(c2)CC[C@@H](N2CCCC2)CC3)ncc1Cl` [Example 119, (S)-(2-((5-chloro-2-((7-(pyrrolidin-1-yl)-6,7,8,9-tetrahydro-5H-benzo[7]annulen-2-yl)amino)pyrimidin-4-yl)amino)-5-(2-oxa-6-azaspiro[3.3]heptan-6-yl)phenyl)dimethyl phosphine oxide] yielded an IC50 of 9.24 nM. Then `Cc1cc(Nc2nc(Nc3ccc4c(c3)CC[C@@H](N3CCCC3)CC4)ncc2Cl)c(P(C)(C)=O)cc1F` [Example 129, (S)-(2-((5-chloro-2-((7-(pyrrolidin-1-yl)-6,7,8,9-tetrahydro-5H-benzo[7]annulen-2-yl)amino)pyrimidin-4-yl)amino)-5-fluoro-4-methylphenyl)dimethyl phosphine oxide], with 9.68 nM. The figure for `N#CCc1cccc(Nc2nc(Nc3ccc4c(c3)CC[C@@H](N3CCCC3)CC4)ncc2Cl)c1` [Example 11, (S)-2-(3-((5-chloro-2-((7-(pyrrolidin-1-yl)-6,7,8,9-tetrahydro-5H-benzo[7]annulen-2-yl)amino)pyrimidin-4-yl)amino)phenyl)acetonitrile] is 8.18 nM. Then `CP(C)(=O)c1cc(OC2CC2)ccc1Nc1nc(Nc2ccc3c(c2)CC[C@@H](N2CCCC2)CC3)ncc1Cl` [Example 128, (S)-(2-((5-chloro-2-((7-(pyrrolidin-1-yl)-6,7,8,9-tetrahydro-5H-benzo[7]annulen-2-yl)amino)pyrimidin-4-yl)amino)-5-cyclopropoxyphenyl)dimethyl phosphine oxide], with 1.82 nM; and `Cc1cccc(Nc2nc(Nc3ccc4c(c3)CC[C@@H](N3CCCC3)CC4)ncc2Cl)c1P(C)(C)=O` [Example 113, (S)-(2-((5-chloro-2-((7-(pyrrolidin-1-yl)-6,7,8,9-tetrahydro-5H-benzo[7]annulen-2-yl)amino)pyrimidin-4-yl)amino)-6-methylphenyl) dimethyl phosphine oxide], with 1.28 nM; and `Cc1cc(Cl)cc(Nc2nc(Nc3ccc4c(c3)CC[C@@H](N3CCCC3)CC4)ncc2Cl)c1P(C)(C)=O` [Example 117, (S)-(4-chloro-2-((5-chloro-2-((7-(pyrrolidin-1-yl)-6,7,8,9-tetrahydro-5H-benzoannulen-2-yl)amino)pyrimidin-4-yl)amino)-6-methylphenyl)dimethyl phosphine oxide], with 1.78 nM. The molecule `CNC(=O)c1c(Nc2nc(Nc3ccc4c(c3)CC[C@@H](N3CCCC3)CC4)ncc2Cl)cc[nH]c1=O` [Example 42, (S)-4-((5-chloro-2-((7-(pyrrolidin-1-yl)-6,7,8,9-tetrahydro-5H-benzo[7]annulen-2-yl)amino)pyrimidin-4-yl)amino)-N-methyl-2-oxo-1,2-dihydropyridine-3-carboxamide] displayed an IC50 of 14.6 nM. The figure for `COC(C)(C)c1ccc(Nc2nc(Nc3ccc4c(c3)CC[C@@H](N3CCCC3)CC4)ncc2Cl)c(P(C)(C)=O)c1` [Example 139, (S)-(2-((5-chloro-2-((7-(pyrrolidin-1-yl)-6,7,8,9-tetrahydro-5H-benzo[7]annulen-2-yl)amino)pyrimidin-4-yl)amino)-5-(2-methoxypropan-2-yl)phenyl)dimethyl phosphine oxide] is 2.53 nM; for `CNC(=O)c1ncsc1Nc1nc(Nc2ccc3c(c2)CC[C@@H](N2CCCC2)CC3)ncc1Cl` [Example 26, (S)-5-((5-chloro-2-((7-(pyrrolidin-1-yl)-6,7,8,9-tetrahydro-5H-benzo[7]annulen-2-yl)amino)pyrimidin-4-yl)amino)-N-methylthiazole-4-carboxamide] it is 7.21 nM; for `CP(C)(=O)c1cc(C2(C#N)CC2)ccc1Nc1nc(Nc2ccc3c(c2)CC[C@@H](N2CCCC2)CC3)ncc1Cl` [Example 140, (S)-1-(4-((5-chloro-2-((7-(pyrrolidin-1-yl)-6,7,8,9-tetrahydro-5H-benzo[7]annulen-2-yl)amino)pyrimidin-4-yl)amino)-3-(dimethylphosphoryl)phenyl)cyclopropane-1-carbonitrile] it is 2.91 nM.
